Data from patent US20230040770A1, “HETEROCYCLIC COMPOUND AND USE THEREOF” (TAKEDA PHARMACEUTICAL COMPANY LIMITED, priority 2019, published 2023).

Each compound was assayed against T1, human orexin type 2 receptor (Homo sapiens, UniProt O43614) (assay: Measurement of orexin type 2 receptor agonist activity (calcium indicator fluorescence, CHO cells forcibly expressing human OX2 receptor)). Settings: compound at 3 μM; 0% = DMSO, 100% = orexin A (human) 10 nM.
T1 construct: expressed in transfected cells
T1 sequence (O43614 1-444): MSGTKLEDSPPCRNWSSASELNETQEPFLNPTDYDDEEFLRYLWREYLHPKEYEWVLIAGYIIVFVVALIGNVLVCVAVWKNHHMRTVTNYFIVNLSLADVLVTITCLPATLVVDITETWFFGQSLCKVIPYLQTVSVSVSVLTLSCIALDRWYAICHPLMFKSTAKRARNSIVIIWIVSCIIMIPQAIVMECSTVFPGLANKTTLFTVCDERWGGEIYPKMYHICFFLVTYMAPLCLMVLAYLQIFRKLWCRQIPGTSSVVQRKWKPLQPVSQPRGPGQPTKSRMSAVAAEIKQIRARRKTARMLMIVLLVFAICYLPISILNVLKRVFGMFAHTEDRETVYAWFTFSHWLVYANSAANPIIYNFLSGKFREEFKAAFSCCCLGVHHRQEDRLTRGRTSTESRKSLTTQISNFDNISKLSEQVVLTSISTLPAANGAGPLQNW
Assay type: cell-based
Excerpt: To obtain a cell clone stably expressing human orexin type 2 receptor, human orexin type 2 receptor cDNA was inserted into pcDNA3.1(+) plasmid vector (Invitrogen), and a plasmid DNA for expression of human orexin type 2 receptor (pcDNA3.1(+)/hOX2R) was cloned. The plasmid DNA was introduced into CHO-dhfr cell by an electroporation method, and human orexin type 2 receptor expressing clone cells were obtained by limiting dilution method by using G418 drug resistance as a selection marker.
CHO cells forcibly expressing human OX2 receptor were seeded in each well of 384 well black transparent bottom plate (BD Falcon) at 7,500 cells/well, and cultured for one day in a 5% CO2 incubator at 37° C. After removal of the medium in the cell plate, assay buffer A containing a calcium indicator (HBSS (Thermo Fisher Scientific), 20 mM HEPES (Thermo Fisher Scientific), 0.1% BSA (Sigma-Aldrich), 2.5 μg/mL Fluo-4 AM (DOJINDO Chemical), 0.08% Pluronic F127 (DOJINDO Chemical), 1.25 mM probenecid (DOJINDO Chemical)) was added at 30 μL/well. The plate was stood for 30 min in a 5% CO2 incubator at 37° C., and further stood at room temperature for 30 min. A test compound prepared by diluting with assay buffer B (HBSS, 20 mM HEPES, 0.1% BSA) was added at 10 μL/well, and the fluorescence value was measured by FDSSμCELL (Hamamatsu Photonics K.K.) every one sec for 1 min, and thereafter every two sec for […]. The activity (%) of the test compound was calculated assuming that variation in the fluorescence value when DMSO was added instead of the test compound was 0%, and variation in the fluorescence value when orexin A (human) (PEPTIDE INSTITUTE, INC.) was added at the final concentration of 10 nM was 100%.

Structure (SMILES)	OX2R agonist activity (3 μM, %) [%]
CC(C)(O)C(=O)N1CC(F)(F)[C@H](NS(C)(=O)=O)[C@@H]1Cc1cccc(-c2ccccc2)c1F [Example 4, N-[(2S,3R)-4,4-difluoro-2-[(2-fluoro[1,1′-biphenyl]-3-yl)methyl]-1-(2-hydroxy-2-methylpropanoyl)pyrrolidin-3-yl]methanesulfonamide]	101
CC(C)(O)C(=O)N1CC(F)(F)[C@H](NS(C)(=O)=O)[C@@H]1Cc1cccc(-c2cccc(F)c2)c1F [Example 7, N-[(2S,3R)-2-[(2,3′-difluoro[1,1′-biphenyl]-3-yl)methyl]-4,4-difluoro-1-(2-hydroxy-2-methylpropanoyl)pyrrolidin-3-yl]methanesulfonamide]	101
CCS(=O)(=O)N[C@@H]1[C@H](Cc2cccc(-c3cccc(F)c3)c2F)N(C(=O)C(C)(C)O)CC1(F)F [Example 8, N-[(2S,3R)-2-[(2,3′-difluoro[1,1′-biphenyl]-3-yl)methyl]-4,4-difluoro-1-(2-hydroxy-2-methylpropanoyl)pyrrolidin-3-yl]ethanesulfonamide]	99
CS(=O)(=O)N[C@@H]1[C@H](Cc2cccc(-c3cccc(F)c3)c2F)N(C(=O)N2CCC2)CC1(F)F [Example 11, N-{(2S,3R)-1-(azetidine-1-carbonyl)-2-[(2,3′-difluoro[1,1′-biphenyl]-3-yl)methyl]-4,4-difluoropyrrolidin-3-yl}methanesulfonamide]	85
CS(=O)(=O)N[C@@H]1[C@H](Cc2cccc(-c3cccc(F)c3)c2F)N(C(=O)C2(O)CCC2)CC1(F)F [Example 13, N-[(2S,3R)-2-[(2,3′-difluoro[1,1′-biphenyl]-3-yl)methyl]-4,4-difluoro-1-(1-hydroxycyclobutane-1-carbonyl)pyrrolidin-3-yl]methanesulfonamide]	93
CS(=O)(=O)N[C@@H]1[C@H](Cc2cccc(-c3cccc(F)c3)c2)N(C(=O)C23CC(C2)C3)CC1(F)F [Example 21, N-{(2S,3R)-1-(bicyclo[1.1.1]pentane-1-carbonyl)-4,4-difluoro-2-[(3′-fluoro[1,1′-biphenyl]-3-yl)methyl]pyrrolidin-3-yl}methanesulfonamide]	102
CCS(=O)(=O)N[C@@H]1[C@H](Cc2cccc(-c3ccccc3)c2F)N(C(=O)C2(O)CCC2)CC1(F)F [Example 23, N-[(2S,3R)-4,4-difluoro-2-[(2-fluoro[1,1′-biphenyl]-3-yl)methyl]-1-(1-hydroxycyclobutane-1-carbonyl)pyrrolidin-3-yl]ethanesulfonamide]	100
Cc1cccc(-c2cccc(C[C@H]3[C@@H](NS(C)(=O)=O)C(F)(F)CN3C(=O)C(C)(C)O)c2F)c1 [Example 25, N-[(2S,3R)-4,4-difluoro-2-[(2-fluoro-3′-methyl[1,1′-biphenyl]-3-yl)methyl]-1-(2-hydroxy-2-methylpropanoyl)pyrrolidin-3-yl]methanesulfonamide]	108
CS(=O)(=O)N[C@@H]1[C@H](Cc2cccc(-c3cccc(F)c3)c2)N(C(=O)[C@H]2CCCO2)CC1(F)F [Example 26, N-{(2S,3R)-4,4-difluoro-2-[(3′-fluoro[1,1′-biphenyl]-3-yl)methyl]-1-[(2R)-oxolane-2-carbonyl]pyrrolidin-3-yl}methanesulfonamide]	100
CC(C)C(=O)N1CC(F)(F)[C@H](NS(C)(=O)=O)[C@@H]1Cc1cccc(-c2cc(F)cc(F)c2)c1 [Example 35, N-[(2S,3R)-2-[(3′,5′-difluoro[1,1′-biphenyl]-3-yl)methyl]-4,4-difluoro-1-(2-methylpropanoyl)pyrrolidin-3-yl]methanesulfonamide]	96
CC(C)(O)C(=O)N1CC(F)(F)[C@H](NS(C)(=O)=O)[C@@H]1Cc1cccc(-c2cccc(Cl)c2)c1F [Example 44, N-[(2S,3R)-2-[(3′-chloro-2-fluoro[1,1′-biphenyl]-3-yl)methyl]-4,4-difluoro-1-(2-hydroxy-2-methylpropanoyl)pyrrolidin-3-yl]methanesulfonamide]	98
CCS(=O)(=O)N[C@@H]1[C@H](Cc2cccc(-c3ccccc3)c2F)N(C(=O)C2CCO2)CC1(F)F (stereo partly drawn) [Example 45, N-[(2S,3R)-4,4-difluoro-2-[(2-fluoro[1,1′-biphenyl]-3-yl)methyl]-1-(oxetane-2-carbonyl)pyrrolidin-3-yl]ethanesulfonamide]	98
CCS(=O)(=O)N[C@@H]1[C@H](Cc2cccc(-c3ccccc3)c2F)N(C(=O)C2CCO2)CC1(F)F (stereo partly drawn) [Example 46, N-[(2S,3R)-4,4-difluoro-2-[(2-fluoro[1,1′-biphenyl]-3-yl)methyl]-1-(oxetane-2-carbonyl)pyrrolidin-3-yl]ethanesulfonamide]	102
CCS(=O)(=O)N[C@@H]1[C@H](Cc2cccc(-c3ccccc3)c2)N(C(=O)C2CCO2)CC1(F)F (stereo partly drawn) [Example 50, N-[(2S,3R)-2-[([1,1′-biphenyl]-3-yl)methyl]-4,4-difluoro-1-(oxetane-2-carbonyl)pyrrolidin-3-yl]ethanesulfonamide]	99
CCS(=O)(=O)N[C@@H]1[C@H](Cc2cccc(-c3ccccc3)c2)N(C(=O)C2CCO2)CC1(F)F (stereo partly drawn) [Example 51, N-[(2S,3R)-2-[([1,1′-biphenyl]-3-yl)methyl]-4,4-difluoro-1-(oxetane-2-carbonyl)pyrrolidin-3-yl]ethanesulfonamide]	99

Further lines, results first:

OX2R agonist activity (3 μM, %) [%]	Structure (SMILES)
87	CS(=O)(=O)N[C@@H]1[C@H](Cc2csc(-c3cc(F)cc(F)c3)n2)N(C(=O)C2(O)CCC2)CC1(F)F (racemic) [Example 136, rac-N-[(2S,3R)-2-{[2-(3,5-difluorophenyl)-1,3-thiazol-4-yl]methyl}-4,4-difluoro-1-(1-hydroxycyclobutane-1-carbonyl)pyrrolidin-3-yl]methanesulfonamide]
100	CCS(=O)(=O)N[C@@H]1[C@H](Cc2cccc(-c3cccc(F)c3)c2)N(C(=O)C2CCO2)CC1(F)F (stereo partly drawn) [Example 52, N-[(2S,3R)-4,4-difluoro-2-[(3′-fluoro[1,1′-biphenyl]-3-yl)methyl]-1-(oxetane-2-carbonyl)pyrrolidin-3-yl]ethanesulfonamide]
100	CCS(=O)(=O)N[C@@H]1[C@H](Cc2cccc(-c3cccc(C)c3F)c2F)N(C(=O)C(C)(C)O)CC1(F)F [Example 65, N-[(2S,3R)-2-[(2,2′-difluoro-3′-methyl[1,1′-biphenyl]-3-yl)methyl]-4,4-difluoro-1-(2-hydroxy-2-methylpropanoyl)pyrrolidin-3-yl]ethanesulfonamide]
106	CCS(=O)(=O)N[C@@H]1[C@H](Cc2cccc(-c3cccc(Cl)c3)c2F)N(C(=O)C(C)(C)O)CC1(F)F [Example 68, N-[(2S,3R)-2-[(3′-chloro-2-fluoro[1,1′-biphenyl]-3-yl)methyl]-4,4-difluoro-1-(2-hydroxy-2-methylpropanoyl)pyrrolidin-3-yl]ethanesulfonamide]
104	CS(=O)(=O)N[C@@H]1[C@H](Cc2cccc(-c3ccccc3)c2F)N(C(=O)[C@H]2CCCO2)CC1(F)F [Example 73, N-{(2S,3R)-4,4-difluoro-2-[(2-fluoro[1,1′-biphenyl]-3-yl)methyl]-1-[(2R)-oxolane-2-carbonyl]pyrrolidin-3-yl}methanesulfonamide]
98	CS(=O)(=O)N[C@@H]1[C@H](Cc2cccc(-c3ccccc3)c2F)N(C(=O)C2(O)CCC2)CC1(F)F [Example 76, N-[(2S,3R)-4,4-difluoro-2-[(2-fluoro[1,1′-biphenyl]-3-yl)methyl]-1-(1-hydroxycyclobutane-1-carbonyl)pyrrolidin-3-yl]methanesulfonamide]
95	CC(C)C(=O)N1CC(F)(F)[C@H](NS(C)(=O)=O)[C@@H]1Cc1cccc(-c2ccccc2)c1F [Example 77, N-[(2S,3R)-4,4-difluoro-2-[(2-fluoro[1,1′-biphenyl]-3-yl)methyl]-1-(2-methylpropanoyl)pyrrolidin-3-yl]methanesulfonamide]
